Experiments:
Acetylcholinesterase [1] = target: Acetylcholinesterase (Homo sapiens, UniProt P22303)
Description: Inhibition of recombinant human AChE using acetylthiocholine iodide as substrate by spectroscopic Ellmans method

Acetylcholinesterase [2] = target: Acetylcholinesterase (Electrophorus electricus, UniProt O42275)
Description: Inhibition of Electrophorus electricus AChE using acetylthiocholine iodide as substrate by spectroscopic Ellmans method

Cholinesterase = Cholinesterase (Homo sapiens, UniProt P06276)
Cholinesterase, sequence (P06276 whole entry): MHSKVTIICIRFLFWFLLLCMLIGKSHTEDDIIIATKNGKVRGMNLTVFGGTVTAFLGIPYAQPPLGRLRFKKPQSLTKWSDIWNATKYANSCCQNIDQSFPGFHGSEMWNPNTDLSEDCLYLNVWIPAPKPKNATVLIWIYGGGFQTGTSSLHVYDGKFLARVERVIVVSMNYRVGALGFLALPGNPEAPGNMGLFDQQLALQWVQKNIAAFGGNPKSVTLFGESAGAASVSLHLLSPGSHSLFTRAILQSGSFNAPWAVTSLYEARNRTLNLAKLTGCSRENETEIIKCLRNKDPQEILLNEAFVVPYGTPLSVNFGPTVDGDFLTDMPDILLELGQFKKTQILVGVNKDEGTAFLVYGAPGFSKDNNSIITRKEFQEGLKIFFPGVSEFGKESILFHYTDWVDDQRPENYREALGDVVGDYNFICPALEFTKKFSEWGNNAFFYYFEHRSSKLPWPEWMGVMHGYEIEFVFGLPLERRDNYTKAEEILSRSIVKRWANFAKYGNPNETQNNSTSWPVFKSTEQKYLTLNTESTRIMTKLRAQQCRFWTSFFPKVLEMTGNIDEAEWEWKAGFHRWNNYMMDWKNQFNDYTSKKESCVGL
Description: Inhibition of recombinant human serum BChE using butyrylthiocholine iodide as substrate by spectroscopic Ellmans method

Acetylcholinesterase (Homo sapiens, UniProt P22303), sequence (P22303 whole entry): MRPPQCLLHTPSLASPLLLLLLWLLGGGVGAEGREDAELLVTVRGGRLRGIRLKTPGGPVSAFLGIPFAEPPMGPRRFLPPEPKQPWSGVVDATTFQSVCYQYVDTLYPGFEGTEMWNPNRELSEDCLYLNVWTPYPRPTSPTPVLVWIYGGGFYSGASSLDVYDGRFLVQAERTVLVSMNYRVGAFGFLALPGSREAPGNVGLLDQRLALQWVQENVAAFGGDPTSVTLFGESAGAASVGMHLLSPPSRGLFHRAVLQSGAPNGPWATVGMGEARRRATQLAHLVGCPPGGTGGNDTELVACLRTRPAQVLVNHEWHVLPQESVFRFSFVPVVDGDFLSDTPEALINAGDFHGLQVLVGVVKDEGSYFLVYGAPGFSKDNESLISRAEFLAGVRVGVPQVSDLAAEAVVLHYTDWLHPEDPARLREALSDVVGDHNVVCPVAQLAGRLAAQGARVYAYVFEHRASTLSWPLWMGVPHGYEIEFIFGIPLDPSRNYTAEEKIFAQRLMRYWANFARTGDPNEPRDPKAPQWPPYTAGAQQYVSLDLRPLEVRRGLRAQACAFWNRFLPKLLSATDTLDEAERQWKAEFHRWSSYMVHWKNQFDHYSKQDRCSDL
Acetylcholinesterase (Electrophorus electricus, UniProt O42275), sequence (O42275 whole entry): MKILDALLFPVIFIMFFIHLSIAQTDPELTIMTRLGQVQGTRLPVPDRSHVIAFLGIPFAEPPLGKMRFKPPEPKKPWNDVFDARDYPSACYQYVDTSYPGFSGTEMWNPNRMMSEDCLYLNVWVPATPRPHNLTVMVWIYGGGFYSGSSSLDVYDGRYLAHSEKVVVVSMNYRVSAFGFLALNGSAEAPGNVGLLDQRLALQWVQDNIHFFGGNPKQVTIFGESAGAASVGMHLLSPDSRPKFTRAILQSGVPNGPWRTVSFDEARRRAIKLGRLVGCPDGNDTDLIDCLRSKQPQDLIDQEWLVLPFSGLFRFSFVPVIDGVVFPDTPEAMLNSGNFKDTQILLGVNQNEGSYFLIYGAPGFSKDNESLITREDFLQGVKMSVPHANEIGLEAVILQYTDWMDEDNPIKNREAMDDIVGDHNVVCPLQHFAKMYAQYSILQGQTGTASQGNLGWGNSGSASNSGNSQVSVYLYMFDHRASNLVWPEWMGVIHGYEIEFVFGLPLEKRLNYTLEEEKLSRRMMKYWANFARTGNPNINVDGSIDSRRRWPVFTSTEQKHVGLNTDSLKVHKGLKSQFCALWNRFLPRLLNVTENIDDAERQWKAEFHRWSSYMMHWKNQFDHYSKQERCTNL

| SMILES | IC50 (Acetylcholinesterase [1]) | IC50 (Acetylcholinesterase [2]) | IC50 (Cholinesterase) |
| --- | --- | --- | --- |
| CC(C)C1=N[C@H]2CC[C@]34C[C@]35C(=O)C[C@]3(C)[C@@H]([C@H](C)N(C)C)[C@H](O)C[C@@]3(C)[C@@H]5CC[C@H]4[C@]2(C)CS1 | 60 nM | 38 nM | 5370 nM |
| CC(C)C1=N[C@H]2CC[C@]34C[C@]35C(=O)C[C@]3(C)[C@@H]([C@H](C)N(C)CCCN6C(=O)c7ccccc7C6=O)[C@H](O)C[C@@]3(C)[C@@H]5CC[C@H]4[C@]2(C)CS1 | 14 nM | 14 nM | 224 nM |
| COc1cccc(CN(C)[C@@H](C)[C@H]2[C@H](O)C[C@@]3(C)[C@@H]4CC[C@H]5[C@]6(C)CSC(C(C)C)=N[C@H]6CC[C@@]56C[C@@]46C(=O)C[C@]23C)c1 | 3 nM | 6 nM | 477 nM |
| CC(C)C1=N[C@H]2CC[C@]34C[C@]35C(=O)C[C@]3(C)[C@@H]([C@H](C)N(C)C)[C@H](O)C[C@@]3(C)[C@@H]5CC[C@H]4[C@]2(C)CN1C | > 10000 nM | > 10000 nM | 2950 nM |
| C[C@@H]([C@H]1[C@H](O)C[C@@]2(C)[C@@H]3CC[C@H]4[C@]5(C)COC(C(F)(F)F)=N[C@H]5CC[C@@]45C[C@@]35C(=O)C[C@]12C)N(C)C | > 10000 nM | > 10000 nM | > 10000 nM |
| CC(C)C1=N[C@H]2CC[C@]34C[C@]35C(=O)C[C@]3(C)[C@@H]([C@H](C)N(C)C)[C@H](O)C[C@@]3(C)[C@@H]5CC[C@H]4[C@]2(C)CN1 |  | > 10000 nM |  |
| CC(C)C1=N[C@H]2CC[C@]34C[C@]35C(=O)C[C@]3(C)[C@@H]([C@H](C)N(C)C)[C@H](O)C[C@@]3(C)[C@@H]5CC[C@H]4[C@]2(C)N1 | > 10000 nM | > 10000 nM | 7220 nM |
| CN[C@@H](C)[C@H]1[C@H](O)C[C@@]2(C)[C@@H]3CC[C@H]4[C@]5(C)CSC(C(C)C)=N[C@H]5CC[C@@]45C[C@@]35C(=O)C[C@]12C | 76 nM | 45 nM | 1340 nM |
| CCN1C[C@]2(C)[C@H](CC=C3C[C@H]4C(=O)C[C@]5(C)[C@@H]([C@H](C)N(C)C)[C@H](O)C[C@@]5(C)[C@@H]4CC[C@H]32)N=C1C(C)C | > 10000 nM | > 10000 nM | 3330 nM |
| CC(C)C1=N[C@H]2CC[C@]34C[C@]35C(=O)C[C@]3(C)[C@@H]([C@H](C)N(C)CCc6ccccc6)[C@H](O)C[C@@]3(C)[C@@H]5CC[C@H]4[C@]2(C)CS1 | 20 nM | 14 nM | 501 nM |
| CC(C)C1=N[C@H]2CC[C@]34C[C@]35C(=O)C[C@]3(C)[C@@H]([C@H](C)N(C)C(=O)OC(C)(C)C)[C@H](O)C[C@@]3(C)[C@@H]5CC[C@H]4[C@]2(C)CS1 | 159 nM | 186 nM | > 10000 nM |
| CC(C)C1=N[C@H]2CC[C@]34C[C@]35C(=O)C[C@]3(C)[C@@H]([C@H](C)N(C)Cc6ccccc6C(F)(F)F)[C@H](O)C[C@@]3(C)[C@@H]5CC[C@H]4[C@]2(C)CS1 | 11 nM | 24 nM | > 10000 nM |
| CC(C)C1=N[C@H]2CC[C@]34C[C@]35C(=O)C[C@]3(C)[C@@H]([C@H](C)N(C)Cc6ccccc6)[C@H](O)C[C@@]3(C)[C@@H]5CC[C@H]4[C@]2(C)CS1 | 7 nM | 13 nM | 554 nM |
| C[C@@H]([C@H]1[C@H](O)C[C@@]2(C)[C@@H]3CC[C@H]4[C@]5(C)COC(C(F)(C(F)(F)F)C(F)(F)F)=N[C@H]5CC[C@@]45C[C@@]35C(=O)C[C@]12C)N(C)C | 3000 nM | 1700 nM | > 10000 nM |
| CC(C)C1=N[C@H]2CC[C@]34C[C@]35C(=O)C[C@]3(C)[C@@H]([C@H](C)N(C)C)[C@H](O)C[C@@]3(C)[C@@H]5CC[C@H]4[C@]2(C)CC1 | 618 nM | 294 nM | > 10000 nM |
| COc1ccc(CN(C)[C@@H](C)[C@H]2[C@H](O)C[C@@]3(C)[C@@H]4CC[C@H]5[C@]6(C)CSC(C(C)C)=N[C@H]6CC[C@@]56C[C@@]46C(=O)C[C@]23C)cc1 | 9 nM | 18 nM | 217 nM |
| CC(C)C1=N[C@H]2CC[C@]34C[C@]35C(=O)C[C@]3(C)[C@@H]([C@H](C)N(C)CCN6C(=O)c7ccccc7C6=O)[C@H](O)C[C@@]3(C)[C@@H]5CC[C@H]4[C@]2(C)CS1 | 70 nM | 24 nM | 653 nM |
| CC(C)C1=N[C@H]2CC[C@]34C[C@]35C(=O)C[C@]3(C)[C@@H]([C@H](C)N(C)Cc6ccc(C(F)(F)F)cc6)[C@H](O)C[C@@]3(C)[C@@H]5CC[C@H]4[C@]2(C)CS1 | 3 nM | 7 nM | > 10000 nM |
| CC(C)C1=N[C@H]2CC[C@]34C[C@]35C(=O)C[C@]3(C)[C@@H]([C@H](C)N(C)Cc6cccc(C(F)(F)F)c6)[C@H](O)C[C@@]3(C)[C@@H]5CC[C@H]4[C@]2(C)CS1 | 3 nM | 9 nM | > 10000 nM |
| CC(C)C1=N[C@H]2CC[C@]34C[C@]35C(=O)C[C@]3(C)[C@@H]([C@H](C)N(C)C(=O)c6ccccc6)[C@H](O)C[C@@]3(C)[C@@H]5CC[C@H]4[C@]2(C)CS1 | 43 nM | 37 nM | > 1000 nM |
| C[C@@H]([C@H]1[C@H](O)C[C@@]2(C)[C@@H]3CC[C@H]4[C@]5(C)COC(C(C)(C)F)=N[C@H]5CC[C@@]45C[C@@]35C(=O)C[C@]12C)N(C)C | 744 nM | 336 nM | > 10000 nM |
| COc1ccccc1CN(C)[C@@H](C)[C@H]1[C@H](O)C[C@@]2(C)[C@@H]3CC[C@H]4[C@]5(C)CSC(C(C)C)=N[C@H]5CC[C@@]45C[C@@]35C(=O)C[C@]12C | 6 nM | 12 nM | 333 nM |
| CC(C)C1=N[C@H]2CC[C@]34C[C@]35C(=O)C[C@]3(C)[C@@H]([C@H](C)N(C)CCCc6ccccc6)[C@H](O)C[C@@]3(C)[C@@H]5CC[C@H]4[C@]2(C)CS1 | 76 nM | 79 nM | 1430 nM |
| CC(C)C1=N[C@H]2CC[C@]34C[C@]35C(=O)C[C@]3(C)[C@@H]([C@H](C)N(C)C)[C@H](O)C[C@@]3(C)[C@@H]5CC[C@H]4[C@]2(C)C=C1 | 25 nM | 16 nM | 679 nM |
| CC(=O)N(C)[C@@H](C)[C@H]1[C@H](O)C[C@@]2(C)[C@@H]3CC[C@H]4[C@]5(C)CSC(C(C)C)=N[C@H]5CC[C@@]45C[C@@]35C(=O)C[C@]12C | 298 nM | 139 nM | > 10000 nM |
